According to patent US9938269B2, “Inhibitor compounds of phosphodiesterase type 10A” (ABBVIE INC., priority 2011, dated 2018):
Counter-ions that a name gives are not always drawn.

What was measured:
[1] = Determination of the microsomal half-life, rat liver microsomes; settings: rat, liver microsomes, pH 7.4
Experimental: The test substances were incubated in a concentration of 0.5 μM as follows:
0.5 μM test substance are preincubated together with liver microsomes from different species (from rat, human or other species) (0.25 mg of microsomal protein/10 in 0.05 M potassium phosphate buffer of pH 7.4 in microtiter plates at 37° C. for 5 min. The reaction is started by adding NADPH (1 mg/mL). After 0, 5, 10, 15, 20 and 30 min., 50 μl aliquots are removed, and the reaction is immediately stopped and cooled with the same volume of acetonitrile. The samples are frozen until analyzed. The remaining concentration of undegraded test substance is determined by MSMS. The half-life (T½) is determined from the gradient of the signal of test substance/unit time plot, it being possible to calculate the half-life of the test substance, assuming first order kinetics, from the decrease in the concentration of the compound with time. The microsomal clearance (mCl) is calculated from mCl=ln 2/T½/(content of microsomal protein in mg/ml)×1000 [ml/min/mg]

PDE10A (human) = target: T1, PDE10A (human) (Homo sapiens, UniProt Q9Y233); assay: Measurement of PDE activity (HTRF cAMP kit), human PDE10A; assay type: biochemical; settings: PDE enzymatic reaction, substrate 20 nM for PDE10, 60 minutes at 29 C
T1 construct: purchased BPS Bioscience
T1 sequence (Q9Y233 whole entry): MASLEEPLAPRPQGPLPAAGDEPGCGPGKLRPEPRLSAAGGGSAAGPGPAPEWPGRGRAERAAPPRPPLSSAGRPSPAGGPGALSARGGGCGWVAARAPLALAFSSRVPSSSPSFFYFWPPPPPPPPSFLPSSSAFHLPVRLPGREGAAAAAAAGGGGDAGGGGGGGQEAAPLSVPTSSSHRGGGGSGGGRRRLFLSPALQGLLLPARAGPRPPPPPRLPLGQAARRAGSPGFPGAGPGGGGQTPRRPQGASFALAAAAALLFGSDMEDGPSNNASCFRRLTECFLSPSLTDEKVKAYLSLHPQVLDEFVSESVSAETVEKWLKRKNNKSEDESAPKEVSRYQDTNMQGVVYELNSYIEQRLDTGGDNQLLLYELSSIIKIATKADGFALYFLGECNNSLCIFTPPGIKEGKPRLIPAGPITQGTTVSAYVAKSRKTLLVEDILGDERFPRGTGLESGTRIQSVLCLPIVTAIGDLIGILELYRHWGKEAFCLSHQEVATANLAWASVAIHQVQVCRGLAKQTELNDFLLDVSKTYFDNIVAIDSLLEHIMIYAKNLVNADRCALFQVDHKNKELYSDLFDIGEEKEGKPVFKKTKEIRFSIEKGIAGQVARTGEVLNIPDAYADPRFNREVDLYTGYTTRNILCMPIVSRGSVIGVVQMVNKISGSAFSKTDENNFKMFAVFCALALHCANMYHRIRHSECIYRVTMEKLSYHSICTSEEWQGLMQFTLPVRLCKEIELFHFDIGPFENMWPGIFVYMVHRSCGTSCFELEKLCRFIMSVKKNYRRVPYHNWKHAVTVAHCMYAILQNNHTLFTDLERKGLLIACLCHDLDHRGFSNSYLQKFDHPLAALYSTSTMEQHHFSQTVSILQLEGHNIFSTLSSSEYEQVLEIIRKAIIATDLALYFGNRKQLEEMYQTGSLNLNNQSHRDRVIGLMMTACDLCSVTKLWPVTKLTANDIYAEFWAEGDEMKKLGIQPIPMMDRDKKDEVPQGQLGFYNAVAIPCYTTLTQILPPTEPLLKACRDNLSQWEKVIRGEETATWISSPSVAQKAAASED
Procedure, shortened: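 HTRF detection of cAMP left after hydrolysis, expressed as percent of uninhibited control to derive IC50. Reaction: serially diluted inhibitor mixed with recombinant enzyme, started with 20 nM cAMP, 60 min at 29 °C in Tris-HCl pH 7.5 buffer containing MgCl2 and BSA.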

[2] = Determination of the microsomal half-life, human liver microsomes; settings: human, liver microsomes, pH 7.4

Row | SMILES | microsomal CLint at 0.5 μM [1] | IC50 (PDE10A (human)) | microsomal CLint at 0.5 μM [2]
1 | O=C1c2c(-c3ccoc3)ccnc2CN1CCc1nc2ccccc2s1 [compound 422, 6-[2-(1,3-Benzothiazol-2-yl)ethyl]-4-(3-furyl)-7H-pyrrolo[3,4-b]pyridin-5-one trifluoroacetate] | 100 to 220 µL/min/mg | < 0.1 µM | < 100 µL/min/mg
2 | O=C1c2c(-c3ccncc3)ccnc2CN1CCc1cnc2ccccc2n1 [compound 465, 4-(4-Pyridyl)-6-(2-quinoxalin-2-ylethyl)-7H-pyrrolo[3,4-b]pyridin-5-one] | < 100 µL/min/mg | < 0.1 µM | < 100 µL/min/mg
3 | COc1ccc(-c2ccnn2C)c2c1C(=O)N(CCc1nc3ccccc3s1)C2 [compound 399, 2-[2-(1,3-Benzothiazol-2-yl)ethyl]-7-methoxy-4-(2-methylpyrazol-3-yl)isoindolin-1-one] | 100 to 220 µL/min/mg | < 0.1 µM | < 100 µL/min/mg
4 | O=C1Cc2ccc(-c3ccnc4c3C(=O)N(CCc3ccc5ccccc5n3)C4)cc2N1 [Example 165, 4-(2-oxo-2,3-dihydro-1H-indol-6-yl)-6-(2-quinolin-2-yl-ethyl)-6,7-dihydro-pyrrolo[3,4-b]pyridin-5-one] | < 100 µL/min/mg | < 0.1 µM | < 100 µL/min/mg
5 | O=C1c2nccc(-c3cncnc3)c2CN1CCc1ccc2ccccc2n1 [compound 467, 4-Pyrimidin-5-yl-6-[2-(2-quinolyl)ethyl]-5H-pyrrolo[3,4-b]pyridin-7-one] | < 100 µL/min/mg | 0.1 to 0.2 µM | < 100 µL/min/mg
6 | O=C1c2cccc(-c3ccncc3)c2CN1CCc1nc2ccccc2s1 [compound 431, 2-[2-(1,3-Benzothiazol-2-yl)ethyl]-4-(4-pyridyl)isoindolin-1-one] | > 220 µL/min/mg | 0.1 to 0.2 µM | < 100 µL/min/mg

Next, values leading:

Row | microsomal CLint at 0.5 μM [1] | IC50 (PDE10A (human)) | microsomal CLint at 0.5 μM [2] | SMILES
7 | > 220 µL/min/mg | < 0.1 µM | 100 to 220 µL/min/mg | CC(C)c1ccc(CCN2Cc3nccc(-c4ccncc4)c3C2=O)nc1 [compound 398, 6-[2-(5-Isopropyl-2-pyridyl)ethyl]-4-(4-pyridyl)-7H-pyrrolo[3,4-b]pyridin-5-one]
8 | < 100 µL/min/mg | 0.1 to 0.2 µM | < 100 µL/min/mg | O=C1c2c(N3CCOCC3)ccnc2CN1CCc1nc2ccccc2o1 [compound 417, 6-[2-(1,3-Benzoxazol-2-yl)ethyl]-4-morpholino-7H-pyrrolo[3,4-b]pyridin-5-one]
9 | < 100 µL/min/mg | < 0.1 µM | < 100 µL/min/mg | O=C1c2c(-c3cc[nH]n3)ccnc2CN1CCc1cn2ccccc2n1 [compound 413, 6-(2-Imidazo[1,2-a]pyridin-2-yl-ethyl)-4-(1H-pyrazol-3-yl)-6,7-dihydro-pyrrolo[3,4-b]pyridin-5-one]
10 | > 220 µL/min/mg | < 0.1 µM | 100 to 220 µL/min/mg | O=C1c2cccc(N3CCOCC3)c2CN1CCc1ccc2ccccc2n1 [Example 130, 4-Morpholin-4-yl-2-(2-quinolin-2-yl-ethyl)-2,3-dihydro-isoindol-1-one; compound with trifluoro-acetic acid]
11 | 100 to 220 µL/min/mg | < 0.1 µM | 100 to 220 µL/min/mg | CCn1c(CCN2Cc3cccc(N4CCOCC4)c3C2=O)nc2ccccc21 [Example 278, 2-[2-(1-Ethyl-1H-benzoimidazol-2-yl)-ethyl]-7-morpholin-4-yl-2,3-dihydro-isoindol-1-one]
12 | < 100 µL/min/mg | < 0.1 µM | < 100 µL/min/mg | Cc1ccc(CCN2Cc3nccc(N4CCOCC4)c3C2=O)nc1 [compound 551, 6-[2-(5-Methyl-2-pyridyl)ethyl]-4-morpholino-7H-pyrrolo[3,4-b]pyridin-5-one]
13 | 100 to 220 µL/min/mg | < 0.1 µM | < 100 µL/min/mg | O=C1c2c(N3CCS(=O)(=O)CC3)ccnc2CN1CCc1nc2ccccc2s1 [compound 390, 6-[2-(1,3-Benzothiazol-2-yl)ethyl]-4-(1,1-dioxo-1,4-thiazinan-4-yl)-7H-pyrrolo[3,4-b]pyridin-5-one trifluoroacetate]
